Assay results published in article PMC10202811 (Nature Medicine, 2023).
Where “and” joins values, the source holds several entries; their conditions need not be identical. Equal entries are not always repeated. Entries after “also recorded” stand apart in the source; their conditions may differ.

Test system: ALK-driven refractory or relapsed neuroblastoma
Experiment: Anti-tumor response: best overall response by NANT response criteria version 2.0
Format: in vivo, human
Description: Patients underwent disease staging at baseline, after courses 2 and 4 and then every four courses thereafter. The primary endpoint for response analysis is the BOR, defined as the best response observed before progression or start of another therapy. […] Response was graded according to the NANT response criteria version 2.0 (ref. [26]), modified from the International Neuroblastoma Response Criteria (INRC)[48]. NANT response criteria use three components for assessment of overall response: soft tissue response assessed by anatomical imaging and avidity on MIBG or FDG-PET; bone response assessed by uptake in bone by MIBG or bone involvement on FDG-PET; and bone marrow response assessed by morphology on bilateral aspirates and biopsies. Each response component (soft tissue, bone and bone marrow) are graded as CR, PR, SD and PD. Overall response grading is defined as: CR, if a response of CR in all components that are involved at baseline; PR, if a response of PR or better in all involved components; MR, if a response of PR or better but with at least one involved component as SD and no PD in all involved components; SD, if a response of SD in all involved components; and PD, if a response of PD in at least one involved component. The overall response definitions are identical to overall responses (CR, PR, SD and PD) as defined by the INRC. Response assessment is initially performed by sites and reviewed against source documents by NANT operations. Additional blinded central review of all radiological or pathological data was conducted for patients with overall PR or better and, in addition, radiologic pathological data of all involved sites for patients with MR to assign the final BOR on this study. Response by MIBG was determined using the Curie criteria. RR was determined as the proportion of patients with BOR of CR and PR in each cohort. Based on an international consensus by the National Cancer Institute Clinical Trials Planning Committee to refine tumor site eligibility criteria and evaluation of disease response for early-phase clinical trials in children with high-risk recurrent, refractory and progressive neuroblastoma, we also performed an ad hoc analysis to determine a modified RR that includes the proportion of patients with BOR of CR, PR and MR.

[1] = Cohort A1, Dose Level 1, individual patient
[2] = Cohort A1, Dose Level 3, individual patient
[3] = Cohort A1, Dose Level 4, individual patient
[4] = Cohort A2, Dose Level 3A, individual patient
[5] = Cohort A2, Dose Level 4A, individual patient
[6] = Cohort B2 (with topotecan/cyclophosphamide), DL4
[7] = Cohort B2 (with topotecan/cyclophosphamide), DL5
[8] = Cohort B2, Dose Level 4B, individual patient
[9] = Cohort B2, Dose Level 5B, individual patient

**Q.** What does the source list for `C[C@H]1Oc2cc(cnc2N)-c2c(nn(C)c2C#N)CN(C)C(=O)c2ccc(F)cc21` [Lorlatinib, (10R)-7-amino-12-fluoro-2,10,16-trimethyl-15-oxo-10,15,16,17-tetrahydro-2H-8,4-(metheno)pyrazolo[4,3-h][2,5,11]-benzoxadiazacyclotetradecine-3-carbonitrile]?
**A.** patients with PD before or by the end of course 2 (<18 years, MYCN-amplified/ALK-mutated neuroblastoma (6/7), cohort A1): 86%; CR, patients (Cohort A1 (N= 23), Total): 1; MR, patients (Cohort A1 (N= 23), Total): 4; PD, patients (Cohort A1 (N= 23), Total): 12; PR, patients (Cohort A1 (N= 23), Total): 2; CR+PR Rate (Cohort A1, DL1): 1/3; CR+PR+MR Rate (Cohort A1, DL1): 2/3; CR, patients (Cohort A1, DL1): 0; MR, patients (Cohort A1, DL1): 1; PD, patients (Cohort A1, DL1): 1; PR, patients (Cohort A1, DL1): 1; CR+PR Rate (Cohort A1, DL2): 0/2; CR+PR+MR Rate (Cohort A1, DL2): 0/2; CR, patients (Cohort A1, DL2): 0; MR, patients (Cohort A1, DL2): 0; PD, patients (Cohort A1, DL2): 2; PR, patients (Cohort A1, DL2): 0; CR+PR Rate (Cohort A1, DL3): 0/3; CR+PR+MR Rate (Cohort A1, DL3): 0/3; CR, patients (Cohort A1, DL3): 0; MR, patients (Cohort A1, DL3): 0; PD, patients (Cohort A1, DL3): 2; PR, patients (Cohort A1, DL3): 0; CR+PR Rate (Cohort A1, DL4): 0/9; CR+PR+MR Rate (Cohort A1, DL4): 2/9; CR, patients (Cohort A1, DL4): 0; MR, patients (Cohort A1, DL4): 2; PD, patients (Cohort A1, DL4): 5; PR, patients (Cohort A1, DL4): 0; CR+PR Rate (Cohort A1, DL5): 2/6; CR+PR+MR Rate (Cohort A1, DL5): 3/6; CR, patients (Cohort A1, DL5): 1; MR, patients (Cohort A1, DL5): 1; PD, patients (Cohort A1, DL5): 2; PR, patients (Cohort A1, DL5): 1; Course Best overall response is achieved [1]: 14 and 2; Patient status at end of course [1]: Off therapy; Course Best overall response is achieved (Cohort A1, Dose Level 2, individual patient): 2; Course Best overall response is achieved [2]: 2; Patient status at end of course [2]: Off therapy; Course Best overall response is achieved [3]: 2; Patient status at end of course [3]: Off therapy; Course Best overall response is achieved (Cohort A1, Dose Level 5, individual patient): 4 and 6 and 2; CR, patients (Cohort A2 (N=15), Total): 4; MR, patients (Cohort A2 (N=15), Total): 3; PD, patients (Cohort A2 (N=15), Total): 1; PR, patients (Cohort A2 (N=15), Total): 3; CR+PR Rate (Cohort A2, 100 mg): 2/5; CR+PR+MR Rate (Cohort A2, 100 mg): 3/5; CR, patients (Cohort A2, 100 mg): 0; MR, patients (Cohort A2, 100 mg): 1; PD, patients (Cohort A2, 100 mg): 1; PR, patients (Cohort A2, 100 mg): 2; CR+PR Rate (Cohort A2, 150 mg): 5/10; CR+PR+MR Rate (Cohort A2, 150 mg): 7/10; CR, patients (Cohort A2, 150 mg): 4; MR, patients (Cohort A2, 150 mg): 2; PD, patients (Cohort A2, 150 mg): 0; PR, patients (Cohort A2, 150 mg): 1; Course Best overall response is achieved [4]: 6 and 2; Patient status at end of course [4]: Off therapy; Course Best overall response is achieved [5]: 4 and 10 and 6 and 2 and 1; Patient status at end of course [5]: Ongoing therapy; also recorded: Off therapy; CR, patients (Cohort B2 (N=8), Total): 1; MR, patients (Cohort B2 (N=8), Total): 3; PD, patients (Cohort B2 (N=8), Total): 3; PR, patients (Cohort B2 (N=8), Total): 1; CR+PR Rate [6]: 1/2; CR+PR+MR Rate [6]: 1/2; CR, patients [6]: 1; MR, patients [6]: 0; PD, patients [6]: 1; PR, patients [6]: 0; CR+PR Rate [7]: 1/6; CR+PR+MR Rate [7]: 4/6; CR, patients [7]: 0; MR, patients [7]: 3; PD, patients [7]: 2; PR, patients [7]: 1; Course Best overall response is achieved [8]: 2; Patient status at end of course [8]: Off therapy; Course Best overall response is achieved [9]: 2; Patient status at end of course [9]: Ongoing therapy; also recorded: Off therapy; RR (BOR of CR or PR) (cohort A1 (3/23)): 13%; median time to BOR (cohort A1, 11 of 23 patients with SD or better): two; patients pre-treated with ALK TKI achieving MR or SD (cohort A1, four of nine): 44%; modified RR (BOR of CR/PR/MR) (cohort A1, single agent, <18 years): 30%; RR (BOR of CR/PR) (cohort A2 (7/15)): 47%; median time to BOR (cohort A2, 14 of 15 patients with SD or better): four; modified RR (BOR of CR/PR/MR) (cohort A2, single agent, ≥18 years): 67%; responses in patients with prior ALK TKI (cohort A2, three of five): 60%; median time to BOR of SD or better (cohort B2): two; RR (BOR of CR/PR) (cohort B2 (2/8), with topotecan/cyclophosphamide): 25%; patients with MYCN amplification achieving a PR (cohort B2, lorlatinib plus topotecan/cyclophosphamide): two of three; modified RR (BOR of CR/PR/MR) (cohort B2, with topotecan/cyclophosphamide, <18 years): 63% and 62%; Course when BOR obtained (individual patients with prior ALK inhibitor, Cohort A1, Dose Level 1): 2; Course when BOR obtained (patients with prior ALK inhibitor, Cohort A1, Dose Level 1): 2; Course when BOR obtained (patients with prior ALK inhibitor, Cohort A1, Dose Level 2): 2; Course when BOR obtained (patients with prior ALK inhibitor, Cohort A1, Dose Level 3): 2; Course when BOR obtained (patients with prior ALK inhibitor, Cohort A1, Dose Level 4): 2; Course when BOR obtained (patients with prior ALK inhibitor, Cohort A1, Dose Level 5): 2; Course when BOR obtained (patients with prior ALK inhibitor, Cohort A2, Dose Level 3A): 2; Course when BOR obtained (patients with prior ALK inhibitor, Cohort B2, Dose Level 4B): 2; Course when BOR obtained (patients with prior ALK inhibitor, Cohort B2, Dose Level 5B): 2 and 1; Course when BOR obtained (prior ALK inhibitor, Cohort A1, Dose Level 2): 2; Course when BOR obtained (prior ALK inhibitor, Cohort A1, Dose Level 3): 2; Course when BOR obtained (prior ALK inhibitor, Cohort A1, Dose Level 4): 2; Course when BOR obtained (prior ALK inhibitor, Cohort A1, Dose Level 5): 2; Course when BOR obtained (prior ALK inhibitor, Cohort B2, Dose Level 4): 2; Course when BOR obtained (prior ALK inhibitor, Cohort B2, Dose Level 5): 2 and 1
